The target in this assay is T1, SMARCA2 (Homo sapiens, UniProt P51531).
T1 construct: endogenous in cells; host or cells: HT1080 (CRISPR HiBiT knock-in clone, generated in house)
The experiment in a line: SMARCA2 HiBiT degradation assay (cellular). The format is cell-based. To be noted: table head names A549; for DC50: 6 h incubation, HiBiT-tagged SMARCA2, luminescence read-out, read-out: HiBit A549 SMARCA2 IP (nM) 6 h; for Emax: A549, 6 h incubation, Emax = amount of residual protein remaining in the cell following compound treatment.

T1 sequence (P51531 whole entry): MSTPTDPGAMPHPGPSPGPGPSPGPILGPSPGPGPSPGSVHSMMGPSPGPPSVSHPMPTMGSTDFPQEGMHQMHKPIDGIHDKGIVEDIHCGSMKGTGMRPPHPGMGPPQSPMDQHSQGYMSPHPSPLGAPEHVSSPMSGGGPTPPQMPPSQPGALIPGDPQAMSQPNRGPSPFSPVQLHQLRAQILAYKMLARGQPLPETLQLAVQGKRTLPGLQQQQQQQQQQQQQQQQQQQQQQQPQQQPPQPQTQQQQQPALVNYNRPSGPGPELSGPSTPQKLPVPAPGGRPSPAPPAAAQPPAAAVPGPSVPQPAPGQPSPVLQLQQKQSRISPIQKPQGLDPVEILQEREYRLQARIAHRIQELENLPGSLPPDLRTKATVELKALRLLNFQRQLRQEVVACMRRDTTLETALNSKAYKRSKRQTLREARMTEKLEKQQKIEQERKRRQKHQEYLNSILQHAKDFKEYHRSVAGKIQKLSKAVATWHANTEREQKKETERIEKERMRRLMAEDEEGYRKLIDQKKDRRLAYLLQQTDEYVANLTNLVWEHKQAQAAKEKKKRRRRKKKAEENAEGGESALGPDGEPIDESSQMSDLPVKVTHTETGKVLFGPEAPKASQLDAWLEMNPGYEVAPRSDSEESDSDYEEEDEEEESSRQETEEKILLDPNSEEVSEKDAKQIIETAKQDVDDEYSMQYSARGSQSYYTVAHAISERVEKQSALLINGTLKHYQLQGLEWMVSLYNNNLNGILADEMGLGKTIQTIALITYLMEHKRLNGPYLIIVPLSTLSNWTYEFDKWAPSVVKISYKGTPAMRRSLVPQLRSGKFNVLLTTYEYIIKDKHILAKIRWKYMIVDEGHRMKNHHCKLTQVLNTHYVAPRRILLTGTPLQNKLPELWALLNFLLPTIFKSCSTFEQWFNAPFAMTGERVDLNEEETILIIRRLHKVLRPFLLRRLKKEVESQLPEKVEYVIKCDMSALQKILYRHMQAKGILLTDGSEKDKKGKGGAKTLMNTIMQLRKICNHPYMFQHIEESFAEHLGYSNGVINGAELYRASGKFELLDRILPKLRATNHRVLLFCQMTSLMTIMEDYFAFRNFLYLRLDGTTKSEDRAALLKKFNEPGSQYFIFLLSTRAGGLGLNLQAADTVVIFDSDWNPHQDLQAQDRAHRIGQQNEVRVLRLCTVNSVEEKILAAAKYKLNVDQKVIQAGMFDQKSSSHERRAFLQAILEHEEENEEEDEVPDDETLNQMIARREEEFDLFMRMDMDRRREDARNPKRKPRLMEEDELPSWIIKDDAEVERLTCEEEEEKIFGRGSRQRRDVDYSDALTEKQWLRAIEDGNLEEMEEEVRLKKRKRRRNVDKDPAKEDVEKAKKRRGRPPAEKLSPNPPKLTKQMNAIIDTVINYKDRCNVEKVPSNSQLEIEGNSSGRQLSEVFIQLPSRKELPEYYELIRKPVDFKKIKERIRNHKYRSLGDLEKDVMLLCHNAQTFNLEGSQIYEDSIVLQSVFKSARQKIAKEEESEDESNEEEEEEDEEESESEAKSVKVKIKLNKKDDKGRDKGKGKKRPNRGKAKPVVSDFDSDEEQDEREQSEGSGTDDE

Broadly, the Emax is the greatest response seen or fitted, relative to the assay's reference. In the case of `Nc1nnc(-c2ccccc2O)cc1N1CCC(C(=O)N2CC3(CCN(C(=O)COc4ccc5c(c4)C(=O)N(C4CCC(=O)NC4=O)C5=O)C3)C2)(c2ccccc2)CC1` (stereo not shown) [Example 189, 5-(2-(2-(1-(3-amino-6-(2-hydroxyphenyl)pyridazin-4-yl)-4-phenylpiperidine-4-carbonyl)-2,6-diazaspiro[3.4]octan-6-yl)-2-oxoethoxy)-2-(2,6-dioxopiperidin-3-yl)isoindoline-1,3-dione], the DC50 stood at 1370 nM and the Emax stood at 62%.

As to `Nc1nnc(-c2ccccc2O)cc1N1CCC(CNC(=O)COc2cccc3c2C(=O)N(C2CCC(=O)NC2=O)C3=O)(c2ccccc2)CC1` (stereo not shown) [Example 72, N-[[1-[3-amino-6-(2-hydroxyphenyl)pyridazin-4-yl]-4-phenyl-4-piperidyl]methyl]-2-[2-(2,6-dioxo-3-piperidyl)-1,3-dioxo-isoindolin-4-yl]oxy-acetamide], the DC50 stood at 273 nM and the Emax turned out to be 62%. For `Nc1nnc(-c2ccccc2O)cc1N1CC2CCC(C1)N2c1cccc(OCCN2CCN(C(=O)N3CCC(c4ccc(NC5CCC(=O)NC5=O)cc4)CC3)CC2)c1` (racemic) [Example 80, rac-3-[4-[1-[4-[2-[3-[3-[3-amino-6-(2-hydroxyphenyl)pyridazin-4-yl]-3,8-diazabicyclo[3.2.1]octan-8-yl]phenoxy]ethyl]piperazine-1-carbonyl]-4-piperidyl]anilino]piperidine-2,6-dione], in that order: 11 nM and 51%. The matching figures for `Nc1nnc(-c2ccccc2O)cc1N1CCN(c2ccccc2)C(C(=O)NCC2CCC(NC(=O)C3CCN(c4ccc5c(c4)C(=O)N(C4CCC(=O)NC4=O)C5=O)CC3)CC2)C1` (stereo not shown) [Example 85, 4-[3-amino-6-(2-hydroxyphenyl)pyridazin-4-yl]-N-[[4-[[1-[2-(2,6-dioxopiperidin-3-yl)-1,3-dioxoisoindol-5-yl]piperidine-4-carbonyl]amino]cyclohexyl]methyl]-1-phenylpiperazine-2-carboxamide]: 92 nM and 43%.

For `CC(Nc1cccc2c1C(=O)N(C1CCC(=O)NC1=O)C2=O)c1cn(CCCCCCCCCN2CCN(c3ccc(N4CCC[C@H](Oc5cc(-c6ccccc6O)nnc5N)C4)cc3)CC2)nn1` (mixture of isomers) [Example 201, 2-(2,6-dioxo-3-piperidyl)-4-[1-[1-[9-[4-[4-[rac-(3S)-3-[3-amino-6-(2-hydroxyphenyl)pyridazin-4-yl]oxy-1-piperidyl]phenyl]piperazin-1-yl]nonyl]triazol-4-yl]ethylamino]isoindoline-1,3-dione], the DC50 came out at 79 nM and the Emax worked out at 37%. For `Nc1nnc(-c2ccccc2O)cc1OC1CCCN(c2ccc(N3CCN(CCCCCCCCCn4cc(C5(Nc6cccc7c6C(=O)N(C6CCC(=O)NC6=O)C7=O)CC5)nn4)CC3)cc2)C1` (stereo not shown) [Example 90, 4-[[1-[1-[9-[4-[4-[3-[3-amino-6-(2-hydroxyphenyl)pyridazin-4-yl]oxy-1-piperidyl]phenyl]piperazin-1-yl]nonyl]triazol-4-yl]cyclopropyl]amino]-2-(2,6-dioxo-3-piperidyl)isoindoline-1,3-dione], in that order: 103 nM and 37%.

On to `Nc1nnc(-c2cc(F)cc(F)c2O)cc1N1CCC(CNC(=O)CCCN2CCC(c3ccc(OC4CCC(=O)NC4=O)cc3)CC2)(c2ccccc2)CC1` (stereo not shown) [Example 182, N-[[1-[3-amino-6-(3,5-difluoro-2-hydroxy-phenyl)pyridazin-4-yl]-4-phenyl-4-piperidyl]methyl]-4-[4-[4-[(2,6-dioxo-3-piperidyl)oxy]phenyl]-1-piperidyl]butanamide], for which the DC50 came to 103 nM and the Emax was found to be 47%. Turning to `Nc1nnc(-c2ccccc2O)cc1N1CC2CCC(C1)N2c1cccc(OCCN2CCN(C(=O)CNC(=O)C3CCN(c4cccc5c4C(=O)N(C4CCC(=O)NC4=O)C5=O)CC3)CC2)c1` (racemic) [Example 18, rac-N-[2-[4-[2-[3-[3-[3-amino-6-(2-hydroxyphenyl)pyridazin-4-yl]-3,8-diazabicyclo[3.2.1]octan-8-yl]phenoxy]ethyl]piperazin-1-yl]-2-oxo-ethyl]-1-[2-(2,6-dioxo-3-piperidyl)-1,3-dioxo-isoindolin-4-yl]piperidine-4-carboxamide], the DC50 was determined as 134 nM and the Emax worked out at 62%.

Consider `CN(C(=O)C1CCN(Cc2cccc(N3C4CCC3CN(c3cc(-c5ccccc5O)nnc3N)C4)c2)CC1)C1CCN(c2ccc3c(c2)C(=O)N(C2CCC(=O)NC2=O)C3=O)CC1` (racemic) [Example 118, rac-1-[[3-[3-[3-amino-6-(2-hydroxyphenyl)pyridazin-4-yl]-3,8-diazabicyclo[3.2.1]octan-8-yl]phenyl]methyl]-N-[1-[2-(2,6-dioxo-3-piperidyl)-1,3-dioxo-isoindolin-5-yl]-4-piperidyl]-N-methyl-piperidine-4-carboxamide], for which the DC50 amounted to 11 nM and the Emax amounted to 26%. The matching figures for `Nc1nnc(-c2ccccc2O)cc1OC1CCCN(c2ccc(N3CCN(C(=O)CCCCCCCCCCCn4cc(CNc5cccc6c5C(=O)N(C5CCC(=O)NC5=O)C6=O)nn4)CC3)cc2)C1` (stereo not shown) [Example 4, 4-[[1-[12-[4-[4-[3-[3-amino-6-(2-hydroxyphenyl)pyridazin-4-yl]oxy-1-piperidyl]phenyl]piperazin-1-yl]-12-oxo-dodecyl]triazol-4-yl]methylamino]-2-(2,6-dioxo-3-piperidyl)isoindoline-1,3-dione]: 149 nM and 44%.

For `Nc1nnc(-c2ccccc2O)cc1N1CC2CCC(C1)N2c1cccc(CN2CCN(C(=O)CN3CCN(c4ccc(OC5CCC(=O)NC5=O)cc4)CC3)CC2)c1` (racemic) [Example 195, rac-3-[4-[4-[2-[4-[[3-[3-[3-Amino-6-(2-hydroxyphenyl)pyridazin-4-yl]-3,8-diazabicyclo[3.2.1]octan-8-yl]phenyl]methyl]piperazin-1-yl]-2-oxo-ethyl]piperazin-1-yl]phenoxy]piperidine-2,6-dione], the DC50 is 72 nM and the Emax was 60%.

`Nc1nnc(-c2ccccc2O)cc1N1CC(Oc2ccc(C(=O)N3CCN(C(=O)C4CCN(c5ccc6c(c5)C(=O)N(C5CCC(=O)NC5=O)C6=O)CC4)CC3)c(Cl)c2)C1` (racemic) [Example 125, rac-5-[4-[4-[4-[1-[3-amino-6-(2-hydroxyphenyl)pyridazin-4-yl]azetidin-3-yl]oxy-2-chloro-benzoyl]piperazine-1-carbonyl]-1-piperidyl]-2-(2,6-dioxo-3-piperidyl)isoindoline-1,3-dione]: the DC50 was found to be 30 nM and the Emax was 42%. `Nc1nnc(-c2cc(F)ccc2O)cc1N1CC2CCC(C1)N2c1cccc(CN2CCN(C(=O)C3CCN(c4ccc5c(c4)C(=O)N(C4CCC(=O)NC4=O)C5=O)CC3)CC2)c1` (stereo not shown) [Example 158, 5-[4-[4-[[3-[3-[3-amino-6-(5-fluoro-2-hydroxy-phenyl)pyridazin-4-yl]-3,8-diazabicyclo[3.2.1]octan-8-yl]phenyl]methyl]piperazine-1-carbonyl]-1-piperidyl]-2-(2,6-dioxo-3-piperidyl)isoindoline-1,3-dione] had an Emax of 5%. For `Nc1nnc(-c2ccccc2O)cc1N1CCC(C(=O)N2CCC(C(=O)N3CCN(c4ccc(C5CCC(=O)NC5=O)cc4)CC3)CC2)(c2ccccc2)CC1` (stereo not shown) [Example 176, 3-(4-(4-(1-(1-(3-amino-6-(2-hydroxyphenyl)pyridazin-4-yl)-4-phenylpiperidine-4-carbonyl)piperidine-4-carbonyl)piperazin-1-yl)phenyl)piperidine-2,6-dione], the Emax amounted to 31%.

In the case of `Nc1nnc(-c2ccccc2O)cc1OC1CCCN(c2ccc(OCCN3CCN(C(=O)CCCCCCCCCCCCC(=O)N4CCN(c5ccc(NC6CCC(=O)NC6=O)cc5)CC4)CC3)cc2)C1` (stereo not shown) [Example 25, 3-[4-[4-[14-[4-[2-[4-[3-[3-amino-6-(2-hydroxyphenyl)pyridazin-4-yl]oxy-1-piperidyl]phenoxy]ethyl]piperazin-1-yl]-14-oxo-tetradecanoyl]piperazin-1-yl]anilino]piperidine-2,6-dione], the DC50 turned out to be 614 nM and the Emax was 59%. The matching figures for `Nc1nnc(-c2ccccc2O)cc1N1CC2CCC(C1)N2c1cccc(OCCN2CCN(C(=O)CCC(=O)N3CCC(Oc4cccc5c4C(=O)N(C4CCC(=O)NC4=O)C5=O)CC3)CC2)c1` (racemic) [Example 9, rac-4-[[1-[4-[4-[2-[3-[3-[3-amino-6-(2-hydroxyphenyl)pyridazin-4-yl]-3,8-diazabicyclo[3.2.1]octan-8-yl]phenoxy]ethyl]piperazin-1-yl]-4-oxo-butanoyl]-4-piperidyl]oxy]-2-(2,6-dioxo-3-piperidyl)isoindoline-1,3-dione]: 339 nM and 58%.

With `Nc1nnc(-c2ccccc2O)cc1N1CCC(OCC(=O)NC2CCN(C(=O)CN3CCC(c4ccc(OC5CCC(=O)NC5=O)cc4)CC3)CC2)(c2ccccc2)CC1` (stereo not shown) [Example 194, 2-[[1-[3-amino-6-(2-hydroxyphenyl)pyridazin-4-yl]-4-phenyl-4-piperidyl]oxy]-N-[1-[2-[4-[4-[(2,6-dioxo-3-piperidyl)oxy]phenyl]-1-piperidyl]acetyl]-4-piperidyl]acetamide], the DC50 is 67 nM and the Emax was 61%. The matching figures for `Nc1nnc(-c2ccccc2O)cc1N1CCC(C(=O)N2CCC3(CC2)CN(C(=O)C2CCN(c4ccc5c(c4)C(=O)N(C4CCC(=O)NC4=O)C5=O)CC2)CCO3)(c2ccccc2)CC1` (stereo not shown) [Example 167, 5-(4-(9-(1-(3-amino-6-(2-hydroxyphenyl)pyridazin-4-yl)-4-phenylpiperidine-4-carbonyl)-1-oxa-4,9-diazaspiro[5.5]undecane-4-carbonyl)piperidin-1-yl)-2-(2,6-dioxopiperidin-3-yl)isoindoline-1,3-dione]: 54 nM and 43%.

(Values after patent US20230024096A1, “BIFUNCTIONAL COMPOUNDS FOR THE TREATMENT OF CANCER” (Hoffmann-La Roche Inc., priority 2019, published 2023).)
